{"source": "patent US20230391781A1", "about": "“MALT1 MODULATORS AND USES THEREOF” (Rheos Medicines, Inc., priority 2020, published 2023)", "key": {"[1]": {"test_system": "IL-2 in Jurkat (ATCC, clone E6.1) cells stimulated with anti-CD3/28/2", "assay": "Jurkat IL-2 Assay", "format": "cell-based", "settings": "Homo sapiens; IL-2 inhibition, Jurkat cells, 30 min compound then anti-CD3/28/2 stimulation for 24 hours; mean value if tested more than once; read-out: IC50", "method_in_brief": "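Jurkat E6.1 T cells in RPMI/10% FBS (below passage 25) were preincubated with a compound dose-response for 30 min, then stimulated with soluble anti-CD3/28/2 for 24 h. IL-2 in the supernatant was measured by MSD immunoassay and viability by CellTiter-Glo luminescence. IC50 came from a 4-parameter fit, reported as ranges, with the mean used where tested repeatedly.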"}, "[2]": {"assay": "High Throughput Dialysis (HTD) Human Plasma Protein Binding Assay", "format": "in vitro ADME", "settings": "pooled human plasma, pH 7.4, equilibrium dialysis, 37° C., read-out: Human PPB (% Unbound)", "experimental": "Human plasma protein binding of various compounds of formula (I) were evaluated using the equilibrium dialysis method described herein.\nThe dialysis membrane strips (HTD % a/b, catalog number 1101, HTDialysis LLC, Gales Ferry, CT, USA) were soaked in ultra-pure water at room temperature for approximately 1 hour. Each membrane strip containing 2 membranes was separated and soaked in 20:80 ethanol/water (v/v) for approximately 20 minutes, after which they were ready for use or were stored in the solution at 2-8° C. for up to a month. Prior to the experiment, the membrane was rinsed three times and soaked for 20 minutes in ultra-pure water.\nOn the day of experiment, the human plasma (BiolVT, catalog number […], sodium heparin or EDTA-K2 anticoagulant, multiple individuals pooled) was thawed by running under cold tap water and centrifuged at 3220 rpm for 5 minutes to remove any clots. The pH value of the resulting plasma was confirmed to be 7.0-8.0.\nThe test compounds and warfarin control (Stru Chem, catalog number SC-16139) were dissolved in dimethyl sulfoxide (DMSO) to obtain 10 mM stock solutions. DMSO working solutions were prepared at 400 μM. To prepare the loading matrix, the compound working solutions (5 μL) were added in a 1:200 ratio to blank human plasma (995 μL) and mixed thoroughly.\nThe time zero (T0) samples to be used for recovery determination were prepared as follows: 50 μL aliquots of loading matrix were transferred in triplicate to the sample collection plate. The samples were immediately matched with opposite blank buffer (basic solution (14.2 g/L Na2HPO4 and 8.77 g/L NaCl in deionized water) titrated with acidic solution (15.6 g/L NaH2PO4·2H2O and 8.77 g/L NaCl in deionized water) to pH 7.4±0.1) to obtain a final volume of 100 μL of 1:1 matrix/dialysis buffer (v/v) in each well. 500 μL stop solution (200 ng/mL tolbutamide and 200 ng/mL labetalol in acetonitrile) were added to these TO samples. They were then stored at 2-8° C. for further processing along with other post-dialysis samples.\nTo load the dialysis device (96-well equilibrium dialysis plate, model 96b, catalog number 1006. HTDialysis LLC, Gales Ferry, CT, USA), an aliquot of 150 μL of the loading matrix was transferred to the donor side of each dialysis well in triplicate, and 150 μL of the dialysis buffer was loaded to the receiver side of the well. The dialysis plate was placed in a humidified incubator at 37° C. with 5% CO2 on a shaking platform that rotated slowly (about 100 rpm) for 4 hours.\nAt the end of the dialysis, aliquots of 50 μL of the samples were taken from both the buffer side and the matrix side of the dialysis device. These samples were transferred into new 96-well plates (polypropylene, 2.2 mL/well, catalog number DWP-22-96-SQ-U-C-L. Apricot). Each sample was mixed with an equal volume of opposite blank matrix (buffer or matrix) to reach a final volume of 100 μL of 1:1 matrix/dialysis buffer (v/v) in each well. All samples were further processed by adding 500 μL of stop solution containing internal standards. The mixture was vortexed and centrifuged at 4000 rpm for about 20 minutes. An aliquot of 100 μL of supernatant of all the samples was then removed for LC-MS/MS analysis. Test compound concentrations in matrix and buffer samples were expressed as peak area ratios (PAR) of analyte/internal standard (no standard curve).\nThe single blank samples were prepared by transferring 50 μL of blank matrix to a 96 well plate (polypropylene. 2.2 mL/well, catalog number DWP-22-96-SQ-U-C-L, Apricot) and adding 50 μL of blank PBS buffer to each well. The blank plasma must match the species of plasma used in the plasma side of the well. Then the matrix-matched samples were further processed by adding 500 μL of stop solution containing internal standards, following the same sample processing method as the dialysis samples. […]"}, "full length MALT1": {"target": "full length MALT1 (Homo sapiens (Human), UniProt Q9UDY8)", "sequence (Q9UDY8 whole entry)": "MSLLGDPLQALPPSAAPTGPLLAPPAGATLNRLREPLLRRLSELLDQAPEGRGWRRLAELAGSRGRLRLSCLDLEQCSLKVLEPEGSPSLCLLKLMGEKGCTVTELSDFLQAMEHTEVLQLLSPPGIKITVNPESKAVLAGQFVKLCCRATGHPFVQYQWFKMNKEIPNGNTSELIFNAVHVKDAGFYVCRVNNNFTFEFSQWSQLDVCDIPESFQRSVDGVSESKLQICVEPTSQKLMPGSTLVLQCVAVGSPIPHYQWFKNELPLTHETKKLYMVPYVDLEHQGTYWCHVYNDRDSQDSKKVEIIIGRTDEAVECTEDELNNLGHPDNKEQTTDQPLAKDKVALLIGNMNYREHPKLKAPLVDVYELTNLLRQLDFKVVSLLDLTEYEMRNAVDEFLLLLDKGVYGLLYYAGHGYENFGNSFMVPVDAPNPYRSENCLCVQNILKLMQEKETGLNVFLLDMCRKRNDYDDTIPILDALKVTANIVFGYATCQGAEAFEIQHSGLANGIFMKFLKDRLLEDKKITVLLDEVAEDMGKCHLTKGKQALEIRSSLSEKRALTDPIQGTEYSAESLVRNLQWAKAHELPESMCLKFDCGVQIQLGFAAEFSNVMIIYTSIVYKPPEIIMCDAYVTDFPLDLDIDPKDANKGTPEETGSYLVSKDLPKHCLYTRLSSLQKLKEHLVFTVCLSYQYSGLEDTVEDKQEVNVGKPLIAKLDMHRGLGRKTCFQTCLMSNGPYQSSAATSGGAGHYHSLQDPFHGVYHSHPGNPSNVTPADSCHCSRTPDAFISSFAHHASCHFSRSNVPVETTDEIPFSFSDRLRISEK", "assay": "MALT1 Biochemical Assay", "settings": "15 nM enzyme, 30 μM peptide substrate Ac-Leu-Arg-Ser-Arg-Rh110-dPro, 30 min pre-incubation, 60 min reaction; mean value if tested more than once", "method_in_brief": "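Full-length human MALT1 was pre-incubated with compound for 30 min, then cleaved a fluorogenic peptide for 60 min in 50 mM Hepes pH 7.5 with 0.8 M sodium citrate and 1 mM DTT. The reaction was quenched with 10 mM iodoacetate and fluorescence was read at 485/520 nm. IC50 came from four-parameter logistic fits of percent inhibition.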"}, "[3]": {"assay": "Thermodynamic Solubility (Ts) Assay in Fasted State Simulated Intestinal Fluid (FaSSIF)", "format": "physicochemical", "settings": "thermodynamic from solid, FaSSIF pH 6.5, shake flask, 25° C., HPLC-UV", "experimental": "The solubilities of various compounds of formula (I) were determined using a thermodynamic solubility assay. The thermodynamic solubility assay employed the shake flask method followed by HPLC-UV analysis. The following stepwise procedure was followed:\nSamples of no less than 2.0 mg were weighed into the lower chambers of Whatman mini-uniprep vials (catalog number UN203NPUORG) and 450 μL of FaSSIF media (0.056% (w/v) lecithin, 0.161% (w/v) sodium taurocholate, 0.39% (w/v) monobasic potassium phosphate, 0.77% (w/v) potassium chloride, deionized H2O, pH 6.5) was added into each vial.\nAfter the buffer was added, the filter pistons of the mini-uniprep vials were placed to the position of the liquid level to ensure the full contact of buffer and compound with the filter during the incubation.\nThe samples were then vortexed for 2 minutes, after which they were incubated at 25° C. with shaking (880 rpm) for 24 hours.\nThe samples were then centrifuged at 4000 rpm (20° C.) for 10 min.\nThe miniunipreps were then compressed to prepare filtrates, and the test concentration of the compound in the filtrate was determined using HPLC-UV (Waters XBridge C18, 4.6*100 mm column; mobile phase A: 0.1% TFA in H2O; mobile phase B: 0.1% TFA in acetonitrile). At least 5 UV standard solutions (e.g. amiodarone hydrochloride, carbamazepine, dexamethasone) were injected into the HPLC from low to high concentration subsequently followed by testing of the thermodynamic solubility supernatants in duplicate. The solubilities of the tested compounds are given in μg/mL."}}}
{"smiles": "CO[C@@H](C)c1c(Nc2ccc([C@H](N(C)C(=O)C3CCN(C(C)=O)CC3)C(F)(F)F)cc2)cnc2nc(Cl)nn12", "note": "[Compound 3.1, 1-acetyl-N—((S)-1-(4-((2-chloro-7-((S)-1-methoxyethyl)-[1,2,4]triazolo[1,5-a]pyrimidin-6-yl)amino)phenyl)-2,2,2-trifluoroethyl)-N-methylpiperidine-4-carboxamide]", "values": [{"measurement": "IC50", "setting": "[1]", "result": "100 to 1000", "unit": "nM"}, {"measurement": "fraction unbound at 4 h, 2 µM", "setting": "[2]", "result": "> 0.2"}, {"measurement": "IC50", "setting": "full length MALT1", "result": "< 100", "unit": "nM"}, {"measurement": "solubility at 24 h", "setting": "[3]", "result": "250 to 1750", "unit": "µg/mL"}]}
{"smiles": "CO[C@@H](C)c1c(Nc2ccc([C@H](N(C)C(=O)C3CN(C(C)=O)C3)C(F)(F)F)cc2)cnc2nc(Cl)nn12", "note": "[Compound 1.15, 1-acetyl-N-[(1S)-1-[4-({2-chloro-7-[(1S)-1-methoxyethyl]-[1,2,4]triazolo[1,5-a]pyrimidin-6-yl}amino)phenyl]-2,2,2-trifluoroethyl]-N-methylazetidine-3-carboxamide]", "values": [{"measurement": "IC50", "setting": "[1]", "result": "100 to 1000", "unit": "nM"}, {"measurement": "fraction unbound at 4 h, 2 µM", "setting": "[2]", "result": "> 0.2"}, {"measurement": "IC50", "setting": "full length MALT1", "result": "100 to 1000", "unit": "nM"}, {"measurement": "solubility at 24 h", "setting": "[3]", "result": "> 1750", "unit": "µg/mL"}]}
{"smiles": "CO[C@@H](C)c1c(Nc2ccc([C@H](N(C)C(=O)C3CCN(C)CC3)C(F)(F)F)cc2)cnc2nc(Cl)nn12", "note": "[Compound 5.1, N—((S)-1-(4-((2-chloro-7-((S)-1-methoxyethyl)-[1,2,4]triazolo[1,5-a]pyrimidin-6-yl)amino)phenyl)-2,2,2-trifluoroethyl)-N,1-dimethylpiperidine-4-carboxamide]", "values": [{"measurement": "IC50", "setting": "[1]", "result": "100 to 1000", "unit": "nM"}, {"measurement": "fraction unbound at 4 h, 2 µM", "setting": "[2]", "result": "> 0.2"}, {"measurement": "IC50", "setting": "full length MALT1", "result": "100 to 1000", "unit": "nM"}, {"measurement": "solubility at 24 h", "setting": "[3]", "result": "> 1750", "unit": "µg/mL"}]}
